Tests used:
[1] = target: Sigma intracellular receptor 2 (Homo sapiens, UniProt Q5BJF2); experiment: GPCRScan assay: inhibition of Sigma 2; design: radioligand conc. used [nm] 5.0, parental cells HEKT
[2] = target: D(2) dopamine receptor (Homo sapiens) (UniProt P14416); details: Compound concentration 10.0 uM
[3] = target: cAMP-dependent protein kinase catalytic subunit alpha (Homo sapiens) (UniProt P17612); details: Compound concentration 1.0 uM
[4] = target: T1, Mitogen-activated protein kinase kinase kinase 3 (Homo sapiens) (UniProt Q99759); details: Compound concentration 1.0 uM
T1 sequence (whole entry): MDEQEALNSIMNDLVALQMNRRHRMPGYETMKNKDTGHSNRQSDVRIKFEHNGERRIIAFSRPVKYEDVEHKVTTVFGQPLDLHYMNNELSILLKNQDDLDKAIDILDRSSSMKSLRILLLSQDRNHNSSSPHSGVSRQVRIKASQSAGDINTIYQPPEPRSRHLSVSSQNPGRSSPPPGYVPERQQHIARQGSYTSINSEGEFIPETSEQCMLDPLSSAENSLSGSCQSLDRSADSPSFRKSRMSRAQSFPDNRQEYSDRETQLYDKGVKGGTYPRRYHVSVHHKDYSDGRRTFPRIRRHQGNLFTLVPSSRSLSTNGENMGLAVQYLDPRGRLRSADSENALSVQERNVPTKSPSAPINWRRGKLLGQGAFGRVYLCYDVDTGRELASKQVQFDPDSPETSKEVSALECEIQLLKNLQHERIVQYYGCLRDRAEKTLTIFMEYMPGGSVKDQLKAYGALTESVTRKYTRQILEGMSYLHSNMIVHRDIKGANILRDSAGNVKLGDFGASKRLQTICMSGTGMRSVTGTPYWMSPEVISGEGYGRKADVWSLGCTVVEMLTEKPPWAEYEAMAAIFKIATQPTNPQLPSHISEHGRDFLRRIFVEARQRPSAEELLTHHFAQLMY

[5] = target: T2, Serine/threonine-protein kinase Nek3 (Homo sapiens) (UniProt P51956); details: Compound concentration 1.0 uM
T2 sequence (whole entry): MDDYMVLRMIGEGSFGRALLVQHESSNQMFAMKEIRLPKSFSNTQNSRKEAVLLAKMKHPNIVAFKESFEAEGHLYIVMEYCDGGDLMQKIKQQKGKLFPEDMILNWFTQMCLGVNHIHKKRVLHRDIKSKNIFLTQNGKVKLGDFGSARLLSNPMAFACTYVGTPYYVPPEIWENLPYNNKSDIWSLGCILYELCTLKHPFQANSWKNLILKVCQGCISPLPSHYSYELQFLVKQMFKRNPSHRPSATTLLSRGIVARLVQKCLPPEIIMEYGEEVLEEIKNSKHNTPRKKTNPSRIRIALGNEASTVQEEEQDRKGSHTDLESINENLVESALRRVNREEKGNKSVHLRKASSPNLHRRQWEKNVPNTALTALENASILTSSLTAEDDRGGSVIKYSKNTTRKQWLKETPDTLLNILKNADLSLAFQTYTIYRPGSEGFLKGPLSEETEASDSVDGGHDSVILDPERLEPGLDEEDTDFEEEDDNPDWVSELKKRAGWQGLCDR

[6] = target: Testis-specific serine/threonine-protein kinase 4 (Homo sapiens) (UniProt Q6SA08); details: Compound concentration 1.0 uM
Chain of Testis-specific serine/threonine-protein kinase 4 (Homo sapiens) (Q6SA08 whole entry): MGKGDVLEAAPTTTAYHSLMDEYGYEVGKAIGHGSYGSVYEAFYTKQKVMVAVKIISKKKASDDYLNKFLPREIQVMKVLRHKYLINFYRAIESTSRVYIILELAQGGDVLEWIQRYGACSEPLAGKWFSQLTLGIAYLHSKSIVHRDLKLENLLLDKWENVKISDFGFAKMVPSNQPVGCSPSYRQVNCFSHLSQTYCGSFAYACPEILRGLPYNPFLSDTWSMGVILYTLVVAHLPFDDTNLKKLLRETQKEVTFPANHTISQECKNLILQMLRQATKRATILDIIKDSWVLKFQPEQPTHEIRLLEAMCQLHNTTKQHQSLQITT

[7] = target: Protein kinase C delta type (Homo sapiens) (UniProt Q05655); details: Compound concentration 1.0 uM
Chain of Protein kinase C delta type (Homo sapiens) (Q05655 whole entry, looked up, the tested form may be a part): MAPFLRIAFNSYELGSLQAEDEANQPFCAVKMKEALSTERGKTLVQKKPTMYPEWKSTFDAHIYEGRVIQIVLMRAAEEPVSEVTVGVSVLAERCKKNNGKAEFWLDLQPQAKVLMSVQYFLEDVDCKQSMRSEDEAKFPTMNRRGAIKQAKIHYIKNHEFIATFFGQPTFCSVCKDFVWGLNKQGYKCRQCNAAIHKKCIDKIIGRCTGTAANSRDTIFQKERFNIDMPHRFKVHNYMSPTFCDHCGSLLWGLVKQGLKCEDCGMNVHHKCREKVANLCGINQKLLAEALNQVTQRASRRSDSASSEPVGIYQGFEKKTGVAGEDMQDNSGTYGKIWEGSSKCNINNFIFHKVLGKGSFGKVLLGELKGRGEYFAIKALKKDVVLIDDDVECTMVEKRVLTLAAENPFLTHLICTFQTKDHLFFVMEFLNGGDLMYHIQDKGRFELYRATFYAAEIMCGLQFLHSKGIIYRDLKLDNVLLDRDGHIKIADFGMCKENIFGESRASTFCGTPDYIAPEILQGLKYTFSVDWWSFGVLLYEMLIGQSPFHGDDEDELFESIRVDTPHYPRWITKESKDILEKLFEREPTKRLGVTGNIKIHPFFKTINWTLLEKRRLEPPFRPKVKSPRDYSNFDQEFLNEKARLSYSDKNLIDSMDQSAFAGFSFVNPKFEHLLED

[8] = target: Epithelial discoidin domain-containing receptor 1 (Homo sapiens) (UniProt Q08345); details: Compound concentration 1.0 uM
Chain of Epithelial discoidin domain-containing receptor 1 (Homo sapiens) (Q08345 whole entry, the tested form may be a part): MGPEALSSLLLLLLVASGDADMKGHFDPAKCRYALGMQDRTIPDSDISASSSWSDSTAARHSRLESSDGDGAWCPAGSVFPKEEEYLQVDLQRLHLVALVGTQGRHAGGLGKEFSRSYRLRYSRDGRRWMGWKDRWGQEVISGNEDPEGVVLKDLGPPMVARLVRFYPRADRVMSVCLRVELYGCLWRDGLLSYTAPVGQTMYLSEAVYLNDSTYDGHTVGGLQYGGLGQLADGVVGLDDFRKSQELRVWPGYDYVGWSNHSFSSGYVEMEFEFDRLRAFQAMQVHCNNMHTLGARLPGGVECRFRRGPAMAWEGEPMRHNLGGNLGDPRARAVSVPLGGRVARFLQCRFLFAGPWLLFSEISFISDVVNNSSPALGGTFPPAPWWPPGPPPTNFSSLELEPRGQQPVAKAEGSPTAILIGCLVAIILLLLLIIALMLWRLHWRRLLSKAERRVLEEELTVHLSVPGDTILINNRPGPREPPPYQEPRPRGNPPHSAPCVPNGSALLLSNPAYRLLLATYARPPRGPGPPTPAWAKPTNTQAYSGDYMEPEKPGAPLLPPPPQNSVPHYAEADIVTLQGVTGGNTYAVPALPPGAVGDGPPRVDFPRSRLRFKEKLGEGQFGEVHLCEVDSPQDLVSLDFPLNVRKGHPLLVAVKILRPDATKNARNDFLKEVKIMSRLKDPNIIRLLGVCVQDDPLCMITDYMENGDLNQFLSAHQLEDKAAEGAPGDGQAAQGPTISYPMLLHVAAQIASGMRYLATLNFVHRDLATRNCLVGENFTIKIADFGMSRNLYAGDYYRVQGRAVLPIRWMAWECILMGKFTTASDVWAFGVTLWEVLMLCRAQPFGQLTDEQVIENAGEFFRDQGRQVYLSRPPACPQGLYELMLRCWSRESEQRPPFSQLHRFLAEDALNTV

[9] = target: cAMP-dependent protein kinase catalytic subunit beta (Homo sapiens) (UniProt P22694); details: Compound concentration 1.0 uM
[10] = target: T3, Ephrin type-B receptor 3 (Homo sapiens) (UniProt P54753); details: Compound concentration 1.0 uM
T3 sequence (whole entry): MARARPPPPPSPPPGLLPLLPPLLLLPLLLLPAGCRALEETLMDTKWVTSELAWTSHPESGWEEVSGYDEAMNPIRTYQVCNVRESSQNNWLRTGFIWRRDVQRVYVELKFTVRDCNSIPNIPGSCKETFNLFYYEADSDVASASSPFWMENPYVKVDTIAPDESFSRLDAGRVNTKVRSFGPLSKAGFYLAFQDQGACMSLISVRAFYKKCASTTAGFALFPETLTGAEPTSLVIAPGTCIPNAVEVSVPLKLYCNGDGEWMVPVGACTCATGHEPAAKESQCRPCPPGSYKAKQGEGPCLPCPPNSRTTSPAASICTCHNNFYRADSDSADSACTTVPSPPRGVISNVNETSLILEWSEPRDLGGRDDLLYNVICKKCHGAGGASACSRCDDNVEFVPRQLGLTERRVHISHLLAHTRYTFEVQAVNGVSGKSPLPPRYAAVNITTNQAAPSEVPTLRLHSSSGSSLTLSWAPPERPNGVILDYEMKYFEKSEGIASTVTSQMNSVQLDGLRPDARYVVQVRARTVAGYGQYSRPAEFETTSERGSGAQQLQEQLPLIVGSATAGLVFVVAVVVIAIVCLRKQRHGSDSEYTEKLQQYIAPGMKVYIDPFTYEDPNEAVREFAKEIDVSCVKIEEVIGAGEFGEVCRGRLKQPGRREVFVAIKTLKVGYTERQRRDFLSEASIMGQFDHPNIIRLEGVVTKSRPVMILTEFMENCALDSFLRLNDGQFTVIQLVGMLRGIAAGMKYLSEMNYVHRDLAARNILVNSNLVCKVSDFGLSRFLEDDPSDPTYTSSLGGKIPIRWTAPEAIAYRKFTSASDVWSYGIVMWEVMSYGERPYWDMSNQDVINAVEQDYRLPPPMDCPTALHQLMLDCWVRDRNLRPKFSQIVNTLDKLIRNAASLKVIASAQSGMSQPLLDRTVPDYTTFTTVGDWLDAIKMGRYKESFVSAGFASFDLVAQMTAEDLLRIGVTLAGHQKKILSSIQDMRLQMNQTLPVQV

[11] = target: Ribosomal protein S6 kinase alpha-3 (Homo sapiens) (UniProt P51812); details: Compound concentration 1.0 uM
Chain of Ribosomal protein S6 kinase alpha-3 (Homo sapiens) (P51812 whole entry): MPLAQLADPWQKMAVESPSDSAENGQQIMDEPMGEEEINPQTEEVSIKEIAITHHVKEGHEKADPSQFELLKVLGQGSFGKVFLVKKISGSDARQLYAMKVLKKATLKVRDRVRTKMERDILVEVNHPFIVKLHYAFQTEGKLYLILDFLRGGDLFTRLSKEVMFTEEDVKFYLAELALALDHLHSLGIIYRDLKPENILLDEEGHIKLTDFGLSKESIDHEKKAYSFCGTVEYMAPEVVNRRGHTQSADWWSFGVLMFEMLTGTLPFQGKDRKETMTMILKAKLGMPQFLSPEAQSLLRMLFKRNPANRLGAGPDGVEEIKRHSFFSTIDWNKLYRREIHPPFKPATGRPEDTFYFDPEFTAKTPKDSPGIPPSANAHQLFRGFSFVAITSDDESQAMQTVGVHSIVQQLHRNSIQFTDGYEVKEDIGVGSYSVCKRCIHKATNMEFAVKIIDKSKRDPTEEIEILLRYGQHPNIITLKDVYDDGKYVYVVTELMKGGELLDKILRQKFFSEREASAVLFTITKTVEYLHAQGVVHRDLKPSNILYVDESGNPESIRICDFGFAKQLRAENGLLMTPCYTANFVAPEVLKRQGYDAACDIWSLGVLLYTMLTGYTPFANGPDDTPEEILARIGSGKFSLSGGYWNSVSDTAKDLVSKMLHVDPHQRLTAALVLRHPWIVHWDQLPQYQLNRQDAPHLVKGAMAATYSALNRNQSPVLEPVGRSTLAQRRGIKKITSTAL

Chain of D(2) dopamine receptor (Homo sapiens) (P14416 whole entry): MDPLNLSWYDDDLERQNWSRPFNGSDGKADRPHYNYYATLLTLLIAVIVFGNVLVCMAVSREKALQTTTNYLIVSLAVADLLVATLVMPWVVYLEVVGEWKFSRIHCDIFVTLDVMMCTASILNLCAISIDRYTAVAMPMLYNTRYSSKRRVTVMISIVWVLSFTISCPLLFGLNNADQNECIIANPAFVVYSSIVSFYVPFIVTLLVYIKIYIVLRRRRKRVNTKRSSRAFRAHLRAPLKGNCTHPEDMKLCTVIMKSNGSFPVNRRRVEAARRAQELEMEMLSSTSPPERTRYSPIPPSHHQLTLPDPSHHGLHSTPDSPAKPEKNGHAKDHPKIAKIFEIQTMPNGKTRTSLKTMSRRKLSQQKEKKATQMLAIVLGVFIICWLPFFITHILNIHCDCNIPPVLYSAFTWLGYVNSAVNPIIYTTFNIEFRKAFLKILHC
Chain of Sigma intracellular receptor 2 (Q5BJF2 whole entry): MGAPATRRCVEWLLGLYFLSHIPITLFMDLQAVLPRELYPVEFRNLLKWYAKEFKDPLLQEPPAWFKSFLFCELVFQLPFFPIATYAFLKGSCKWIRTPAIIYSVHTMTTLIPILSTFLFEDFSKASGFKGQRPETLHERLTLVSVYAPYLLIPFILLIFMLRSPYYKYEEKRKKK

Structure (SMILES) | Ki [1] [µM] | inhibition [2] [%] | % residual kinase activity [3] [%] | % residual kinase activity [4] [%] | % residual kinase activity [5] [%] | % residual kinase activity [6] [%] | % residual kinase activity [7] [%] | % residual kinase activity [8] [%] | % residual kinase activity [9] [%] | % residual kinase activity [10] [%] | % residual kinase activity [11] [%]
Cc1nc(C2CCN(C(=O)c3ccc(OC(F)(F)F)cc3N)CC2)c2ncc(N3CCN(C)CC3)cc2n1 [BAY-693] | 4.9 | 2.97 | – | – | – | – | – | – | – | – | –
CN1CCN(c2cnc3c(C4CCN(C(=O)c5ccc(OC(F)(F)F)cc5N)CC4)ncnc3c2)CC1 [BAY-885] | – | – | 99 | 94 | 111 | 115 | 115 | 100 | 89 | 42 | 109

— ChEMBL document CHEMBL4507268 (2021)
